Laboratory results reported in PubChem BioAssay (NCI).
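Dose response: 5 concentrations. Exposure: 48 h. Format: 96-well plates. Endpoint: linear interpolation; highest concentration if not reached. At the GI50, growth is halved. TGI: total growth inhibition.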

Assays:
Test in all cases: NCI-60 cell line screen, 48 h; in the data active = GI50 below about 0.43 µM; inactive = the rest
[1] = tested on: NCI-H23 lung
[2] = tested on: RXF 393 renal
[3] = tested on: LOX IMVI melanoma
[4] = tested on: MOLT-4 leukemia
[5] = tested on: HS 578T breast
[6] = tested on: SW-620 colon
[7] = tested on: KM12 colon
[8] = tested on: OVCAR-4 ovarian
[9] = tested on: OVCAR-8 ovarian
[10] = tested on: MDA-MB-231 breast
[11] = tested on: M14 melanoma
[12] = tested on: ACHN renal
[13] = tested on: COLO 205 colon
[14] = tested on: HT29 colon
[15] = tested on: SN12C renal
[16] = tested on: SK-MEL-2 melanoma
[17] = tested on: EKVX NSCLC
[18] = tested on: U251 CNS
[19] = tested on: HL-60(TB) leukemia
[20] = tested on: T-47D breast
[21] = tested on: DU-145 prostate
[22] = tested on: IGROV1 ovarian
[23] = tested on: UO-31 renal
[24] = tested on: OVCAR-5 ovarian
[25] = tested on: SR leukemia
[26] = tested on: NCI-H522 lung
[27] = tested on: NCI/ADR-RES ovarian
[28] = tested on: SK-MEL-5 melanoma
[29] = tested on: A549 NSCLC
[30] = tested on: HCT-15 colon
[31] = tested on: K-562 leukemia
[32] = tested on: SK-MEL-28 melanoma
[33] = tested on: NCI-H226 lung
[34] = tested on: PC-3 prostate
[35] = tested on: SF-539 CNS
[36] = tested on: MCF7 breast
[37] = tested on: SF-268 CNS
[38] = tested on: OVCAR-3 ovarian
[39] = tested on: RPMI-8226 leukemia
[40] = tested on: UACC-257 melanoma
[41] = tested on: SF-295 CNS
[42] = tested on: MDA-MB-435
[43] = tested on: SK-OV-3 ovarian
[44] = tested on: CCRF-CEM leukemia
[45] = tested on: CAKI-1 renal
[46] = tested on: 786-0 renal
[47] = tested on: UACC-62 melanoma
[48] = tested on: NCI-H460 lung
[49] = tested on: A498 renal
[50] = tested on: HOP-92 NSCLC
[51] = tested on: TK-10 renal
[52] = tested on: BT-549 breast
[53] = tested on: SNB-19 CNS
[54] = tested on: HCC-2998 colon
[55] = tested on: HCT-116 colon
[56] = tested on: SNB-75 CNS
[57] = tested on: HOP-62 NSCLC

COc1ccc(CCn2c3c(c4c(O)cccc42)C(=O)c2ccccc2-3)cc1OC
> 83.6 µM: TGI [9]
> 94.7 µM: TGI [17]
> 47.4 µM: TGI [22]
> 74.1 µM: TGI [51]
> 84.4 µM: TGI [11]
> 87.3 µM: TGI [13]
> 51.2 µM: TGI [35]
> 73.3 µM: TGI [3]
> 84.2 µM: TGI [24]
43.4 µM: TGI [54]
> 52.7 µM: TGI [12]
> 72.9 µM: TGI [47]
> 60.3 µM: TGI [28]
> 100 µM: TGI [2] | TGI [8] | TGI [14] | TGI [15] | TGI [18] | TGI [20] | TGI [21] | TGI [23] | TGI [29] | TGI [32] | TGI [33] | TGI [34] | TGI [36] | TGI [37] | TGI [38] | TGI [43] | TGI [49] | TGI [50] | TGI [53] | TGI [56]
> 95.3 µM: TGI [16]
> 81.6 µM: TGI [41]
63.9 µM: TGI [4]
inactive: GI50 [1] 25.3 µM | GI50 [2] > 79 µM | GI50 [3] > 45 µM | GI50 [4] 19.9 µM | GI50 [5] 46.2 µM | GI50 [6] 31.1 µM | GI50 [7] 22.1 µM | GI50 [8] 71.8 µM | GI50 [9] 34.3 µM | GI50 [10] 41.5 µM | GI50 [11] 43.3 µM | GI50 [12] 13.6 µM | GI50 [13] 29.1 µM | GI50 [14] 43.5 µM | GI50 [15] 50.7 µM | GI50 [16] 24.1 µM | GI50 [17] 29.3 µM | GI50 [18] 41.8 µM | GI50 [19] 20.3 µM | GI50 [20] 67.9 µM | GI50 [21] > 60.6 µM | GI50 [22] 0.818 µM | GI50 [23] 37.5 µM | GI50 [24] > 42 µM | GI50 [25] 12.9 µM | GI50 [26] 20.8 µM | GI50 [27] 21 µM | GI50 [28] 18.8 µM | GI50 [29] 32.9 µM | GI50 [30] 22.5 µM | GI50 [31] 12.5 µM | GI50 [32] > 80.2 µM | GI50 [33] > 56.1 µM | GI50 [34] 37.4 µM | GI50 [35] 6.65 µM | GI50 [36] 34.8 µM | GI50 [37] 38.9 µM | GI50 [38] 54.1 µM | GI50 [39] 21.2 µM | GI50 [40] 52.6 µM | GI50 [41] 30.8 µM | GI50 [42] 20 µM | GI50 [43] > 100 µM | GI50 [44] 20 µM | GI50 [45] 36.3 µM | GI50 [46] 36.8 µM | GI50 [47] 21.5 µM | GI50 [48] 31.2 µM | GI50 [49] > 100 µM | GI50 [50] > 72.5 µM | GI50 [51] 28.6 µM | GI50 [52] 6.57 µM | GI50 [53] > 100 µM | GI50 [54] 19.5 µM | GI50 [55] 26.1 µM | GI50 [56] > 100 µM | GI50 [57] > 35.6 µM
> 47.7 µM: TGI [52]
> 85.4 µM: TGI [5]
> 57.5 µM: TGI [55]
> 66.8 µM: TGI [44]
> 81.9 µM: TGI [7]
69.7 µM: TGI [31]
> 73.4 µM: TGI [30]
> 69.4 µM: TGI [46]
> 83.7 µM: TGI [42]
> 77.7 µM: TGI [1]
> 70.8 µM: TGI [39]
> 90.9 µM: TGI [10]
> 96.5 µM: TGI [45] | TGI [48]
> 69.2 µM: TGI [27]
> 59.3 µM: TGI [57]
> 75.6 µM: TGI [6]
34 µM: TGI [25]
53 µM: TGI [19]
98.6 µM: TGI [40]
> 60.4 µM: TGI [26]
